{
  "source": "patent US20150037832A1",
  "about": "“METHODS OF FACILITATING THE BIOCONVERSION OF CRUDE BIODIESEL-DERIVED GLYCEROL BY MICROORGANISMS” (priority 2011, published 2015)",
  "key": {"[1]": {"tested_on": "Clostridium pasteurianum ATCC 6013", "test": "Growth (optical density, μmax) and pH profiles of batch cultures", "assay_type": "cell-based", "conditions": "for maximum specific growth rate, μmax: exponential log phase, 20 g/L glycerol and/or 10 g/L sugar; for effect on maximum optical density: 2 g/L sodium salt in 25 g/L pure glycerol", "description": "(§1) Pre-cultures for glycerol utilization experiments were grown in RCM. The growth was monitored using optical density (λ=600 nm) and the cultures were used as inoculum once they reached the mid-exponential phase of growth. 100 mL of Biebl medium with appropriate carbon sources was inoculated with 10% inoculum and the contents were split equally into three in a 75 mL culture flask. All experiments were carried out in batch cultures and in triplicates. The cultures were monitored for growth, substrate utilization and product formation as mentioned earlier.\nThe co-fermentation of sugars was studied using hexose (dextrose) and pentose (D-xylose and L-arabinose) with 20 g/L of pure glycerol at a concentration of 10 g/L of the sugars, maintaining a 2:1 ratio of glycerol and sugars. Cells grown on glycerol or sugar alone were used as controls. […] Acetate and butyrate were studied at concentrations of 2 g/L with an initial glycerol concentration of 25 g/L of pure glycerol. Biotin was supplemented in the media at 0.8 mg/L with an initial concentration of 25 g/L of pure glycerol."}, "[2]": {"tested_on": "Clostridium pasteurianum ATCC 6013", "test": "Product yields and substrate utilization of fermentation (HPLC)", "conditions": "for effect of addition on butanol / product formation: added to glycerol fermentation; for 1,3-PDO yield / conversion: sole carbon source", "description": "Freeze dried pure cultures of C. pasteurianum were revived using nutrient rich reinforced clostridal growth media (RCM) and glycerol stock cultures were prepared for future use. […] Pre-culture for glycerol utilization experiments were grown in RCM. The growth was monitored using optical density and the cultures were used as inoculum once they reached mid-exponential phase of growth. The growth experiments were conducted in 75 mL culture flasks containing 40 mL of the media and 5 mL of inoculum. Defined media was used for glycerol utilization. Unless otherwise specified purified glycerol or biodiesel derived crude glycerol were used as the sole carbon source. All experiments were conducted in an anaerobic chamber (95% N2 and 5% H2) at a temperature of 37° C. to ensure oxygen-free conditions.\nas §1\nThe co-fermentation of sugars was studied using hexose (dextrose) and pentose (D-xylose and L-arabinose) with 20 g/L of pure glycerol at a concentration of 10 g/L of the sugars, maintaining a 2:1 ratio of glycerol and sugars. Cells grown on glycerol or sugar alone were used as controls."}, "[3]": {"tested_on": "Clostridium pasteurianum ATCC 6013", "test": "Effect of impurities on glycerol fermentation", "assay_type": "cell-based", "conditions": "for growth and product yield: salt at 2.5, 5, 7.5 and 10% (w/w) of initial glycerol; for growth and product yield / substrate utilization: 25 g/L pure glycerol; for substrate utilization: fatty acid sodium salt at 5%, 10% and 15% (w/w) of initial substrate", "experimental": "Defined media was used for glycerol utilization.\nTo study the effect of impurities in crude glycerol, various concentrations of each impurity were added to the media containing 25 g/L pure glycerol. Methanol was added at 2.5 g/L and 5 g/L. Potassium chloride and potassium sulfate were added at 2.5, 5, 7.5 and 10% (w/w) of the initial glycerol concentration. The fatty acids were added in the form of sodium salts of steric acid, oleic acid and linoleic acid at 5, 10 and 15% (w/w) (of initial substrate conc.). The media containing 25 g/L of pure glycerol was used as the control. The effects of fatty acids were also studied by partially purifying the crude glycerol by precipitating the fatty acids using concentrated hydrochloric acid. The crude glycerol was diluted in deionized water at a ratio of 1:3 and hydrochloric acid was added to lower pH to between 2 and 3. At this pH the fatty acids precipitated and were removed by centrifugation at 5000 rpm for 15 minutes. The precipitated fatty acids were later analyzed using NMR by dissolving them in d-DMSO."}, "[4]": {"tested_on": "C. acetobutylicum", "conditions": "butyrate addition at 2 g/L, reported; cited from earlier work"}, "[5]": {"tested_on": "Clostridium pasteurianum ATCC 6013", "experimental": "The cell membrane was extracted using dichloromethane/methanol mixtures. The membrane extracted in dichloromethane was separated by evaporating the solvents under a gentle nitrogen stream. This dry film of the membrane was used for further analysis.\nThe dry film of the membrane was dissolved in deuterated chloroform for NMR analysis. Synthetic lipids such as Diaplmitoylphosphotidylcholine (DPPC) and Dioleylphosphotidylcholine (DOPC) were used as standards for NMR analysis. The dry films of the membrane lipids were labeled with DPH (500:1) and made into liposomes for analyzing the stability of the membrane by studying the fluorescence anisotropy using a Perkin-Elmer LS50B."}, "[6]": {"conditions": "L-arabinose added to glycerol, vs glycerol alone"}, "[7]": {"conditions": "endogenously produced butanol, defined media, varied glycerol concentration"}, "[8]": {"conditions": "exogenous butanol 2 g/L to 20 g/L, defined media with 50 g/L glucose and RCM"}},
  "note": "Where “and” joins values, the source holds several entries; their conditions need not be identical. Equal values may be shown once. Read-outs that look alike come from different tables or passages of the source.",
  "data": [
    {"compound": "O=C[C@H](O)[C@@H](O)[C@H](O)CO", "note": "[D-xylose]", "values": [
      {"measurement": "maximum specific growth rate, μmax", "setting": "[1]", "result": "0.794 ± 0.390", "unit": "day⁻¹"},
      {"measurement": "acetate, 1,3-PDO and ethanol as share of the overall products", "setting": "[2]; D-xylose as sole carbon source", "result": 88, "unit": "%"},
      {"measurement": "product formation", "setting": "[2]; D-xylose as sole carbon source", "result": 0.78, "unit": "g/g"},
      {"measurement": "effect of addition on butanol / product formation", "setting": "[2]", "result": "did not result in an increase in the formation of any of the products"},
      {"measurement": "utilization of D-xylose", "setting": "[2]; addition of D-xylose to glycerol fermentation, 2:1", "result": "25±16", "unit": "%"},
      {"measurement": "D-xylose left unconsumed in the media", "setting": "[2]; co-fermentation of glycerol with xylose", "result": "more than 90%"}
    ]},
    {"compound": "OCC(O)CO", "note": "[Glycerol, glycerol]", "values": [
      {"measurement": "maximum specific growth rate, μmax", "setting": "[1]", "result": "1.562 ± 0.118", "unit": "day⁻¹"},
      {"measurement": "butanol yield", "setting": "[2]; control experiment with glycerol", "result": "22 % (g/g)"},
      {"measurement": "1,3-PDO yield / conversion", "setting": "[2]; control", "result": "20 % (g/g)"}
    ]},
    {"compound": "O=C[C@H](O)[C@@H](O)[C@@H](O)CO", "note": "[L-arabinose]", "values": [
      {"measurement": "maximum specific growth rate, μmax", "setting": "[1]", "result": "0.933 ± 0.054", "unit": "day⁻¹"},
      {"measurement": "ethanol yield", "setting": "[2]; L-arabinose added to glycerol", "result": 0.10, "unit": "g/g"},
      {"measurement": "increase of 1,3-PDO yield", "setting": "[2]; [6]", "result": 65, "unit": "%"},
      {"measurement": "increase of ethanol yield", "setting": "[2]; [6]", "result": 5, "unit": "fold"},
      {"measurement": "1,3-PDO and ethanol as share of overall products", "setting": "[2]; L-arabinose as carbon source", "result": 85, "unit": "%"},
      {"measurement": "effect of addition on butanol / product formation", "setting": "[2]", "result": "does not affect the yield of butanol"},
      {"measurement": "ratio of butanol/1,3-PDO", "setting": "[2]; addition of L-arabinose to glycerol", "result": 0.64},
      {"measurement": "1,3-PDO maximum yield", "setting": "[2]; control, L-arabinose sole carbon source", "result": "36.5 % (g/g)"},
      {"measurement": "1,3-PDO yield / conversion", "setting": "[2]; control", "result": "28 % (g/g)"},
      {"measurement": "Ethanol and 1,3-PDO as share of the products yielded", "setting": "[2]; cultures on arabinose", "result": "~86 % (mol/mol)"},
      {"measurement": "1,3-PDO yield", "setting": "[2]; sugar 10 g/L added as co-substrate to 20 g/L glycerol, with respect to glycerol", "result": 0.33, "unit": "g/g"}
    ]},
    {"compound": "[Cl-].[K+]", "note": "[Potassium chloride]", "values": [
      {"measurement": "growth and product yield", "setting": "[3]", "result": "no detrimental effect on growth and product yield"}
    ]},
    {"compound": "CC(=O)[O-].[Na+]", "note": "[acetate, sodium acetate]", "values": [
      {"measurement": "effect on maximum optical density", "setting": "[1]", "result": "small increase in the maximum optical density"},
      {"measurement": "decrease in 1,3-PDO production", "setting": "[2]", "result": 33, "unit": "%"},
      {"measurement": "increase in butanol formation", "setting": "[2]", "result": "~25% and 23%"}
    ]},
    {"compound": "O=C(O)CCCC[C@@H]1SC[C@@H]2NC(=O)N[C@@H]21", "note": "[biotin]", "values": [
      {"measurement": "increase in butanol formation", "setting": "[2]; supplement (acetate 2 g/L, biotin 0.8 mg/L) in 25 g/L pure glycerol, vs control", "result": "18% and ~25%"}
    ]},
    {"compound": "CCCC(=O)[O-].[Na+]", "note": "[butyrate, sodium butyrate]", "values": [
      {"measurement": "effect on maximum optical density", "setting": "[1]", "result": "slightly lower maximum optical density"},
      {"measurement": "lowering of the maximum optical density", "setting": "[1]; butyrate 2 g/L in 25 g/L pure glycerol", "result": 20, "unit": "%"},
      {"measurement": "effect of addition on butanol / product formation", "setting": "[2]", "result": "did not increase butanol production"},
      {"measurement": "increase of butanol production", "setting": "[4]", "result": 1.6, "unit": "folds"}
    ]},
    {"compound": "CO", "note": "[methanol]", "values": [
      {"measurement": "growth or product formation during the fermentation of glycerol", "setting": "[3]; methanol at 2.5 g/l and 5 g/L in media with 25 g/L pure glycerol", "result": "no reduction in growth or product formation"}
    ]},
    {"compound": "O=S(=O)([O-])[O-].[K+].[K+]", "note": "[potassium sulfate]", "values": [
      {"measurement": "growth and product yield", "setting": "[3]", "result": "no detrimental effect on growth and product yield"}
    ]},
    {"compound": "CCCCC/C=C\\C/C=C\\CCCCCCCC(=O)[O-].[Na+]", "note": "[sodium linoleate]", "values": [
      {"measurement": "substrate utilization", "setting": "[3]", "result": "completely inhibited"}
    ]},
    {"compound": "CCCCCCCC/C=C\\CCCCCCCC(=O)[O-].[Na+]", "note": "[sodium oleate]", "values": [
      {"measurement": "substrate utilization", "setting": "[3]", "result": "not affected"}
    ]},
    {"compound": "CCCCCCCCCCCCCCCCCC(=O)[O-].[Na+]", "note": "[sodium stearate]", "values": [
      {"measurement": "substrate utilization", "setting": "[3]", "result": "not affected"}
    ]},
    {"compound": "butanol", "values": [
      {"measurement": "anisotropy of membrane", "setting": "[5]; [7]", "result": "corresponding increase in anisotropy"},
      {"measurement": "degree of unsaturation of membrane fatty acids", "setting": "[5]; [7]", "result": "a decrease in the degree of unsaturation"},
      {"measurement": "anisotropy of membrane", "setting": "[5]; [8]", "result": "found to decrease"},
      {"measurement": "degree of unsaturation of membrane fatty acids", "setting": "[5]; [8]", "result": "observed to increase"}
    ]}
  ]
}
